Data: patent publication US9238650B2, “Solid forms of a pyrido-pyrimidinium inner salt” (E. I. DU PONT DE NEMOURS AND COMPANY, priority 2012, dated 2016)
Entries after “also recorded” stand apart in the source; their conditions may differ. Structures can show the parent of a compound that is named as a salt.

What was measured:
Format in all cases: physicochemical
[1] = Solid-liquid separation efficiency: time to complete filtration on a lab nutsche filter; settings: for Filtration time: time required to complete filtration of 90 g from reaction mass
Experimental: In separate experiments, about 90 grams of Polymorph Forms A and B of Compound 1 were prepared according to PREPARATION EXAMPLE 1 and 2, respectively. The solids were filtered from their reaction mass using a lab nutsche filter. The times to complete the filtrations (indicated by no further liquid dripping from the filter) were measured and are reported in Table 12.

[2] = Solubility of Compound 1 in the test solvent, filtrate analyzed by HPLC; settings: 22° C., 5 days, label = starting polymorph form(s)
Experimental: HPLC was used to determine the purity of Compound 1 and intermediates. An Agilent 1100/1200 series HPLC system with DAD/UV detector and reverse-phase column (Agilent Zorbax® SB C8 (4.6×150) mm, 3.5 μm, Part No. 863953-906) was used. Flow rate was 1 mL/min, run time 27 min, injection volume 3.0 μL, and the column oven temperature was 40° C. A mobile phase gradient according to Table 1 was used wherein mobile phase A was 0.03% by volume orthophosphoric acid and mobile Phase B was acetonitrile (HPLC grade). Mobile phase A was prepared by thoroughly mixing 0.3 mL of orthophosphoric acid (AR grade) with 999.7 mL of deionized water. Standard solutions were prepared by weighing 22.0±2.0 mg of the analytical standard in duplicate into separate 50-mL volumetric flasks, dissolving and diluting with the diluent. Samples were prepared by weighing 40.0±2.0 mg of the sample into a 100 mL standard volumetric flask, dissolving and diluting with the diluent. For analysis, the HPLC system and column were equilibrated with initial mobile phase. In the chromatographic sequence, blank samples, standard samples and test samples were run. The retention time for Compound 1 was about 22.2 min. Peaks appearing in the blank sample were not integrated, all other peaks were integrated and a % purity reported from the sample chromatogram. For wt % determination the concentration of test sample was calibrated against the standard sample.
(§1) Polymorph Forms A and B of Compound 1 were subjected to non-competitive and competitive interconversion experiments. […] For the competitive experiments, polymorph Forms A and B were mixed together and studied for the potential conversion to the more thermodynamically stable form. The starting polymorph form(s) were mixed with various solvents for 5 days at 22° C., and then filtered. The filtrate was analyzed by HPLC to determine the solubility of Compound 1 in the test solvent. The solids were dried and analyzed by pXRD.

[3] = Particle size distribution by laser diffraction particle size analyzer after dispersion in deionized water; settings: dispersed in deionized water; for D50: median particle size; for D[4, 3]: volume-weighted mean particle size
Experimental: After the observation of increased settling velocity of Polymorph Form A compared to Form B (see CHARACTERIZATION EXAMPLE 9), the particle size distributions of the two forms were measured. Form B of Compound 1 was prepared according to PREPARATION EXAMPLE 2. Some of the Form B thus prepared was converted to Form A according to PREPARATION EXAMPLE 5. The particle size distribution of both Form A and B samples were determined after dispersion in deionized water using a laser diffraction particle size analyzer (model Mastersizer 2000 by Malvern Instruments, Malvern, UK). The particle size distribution parameters D10, D50 and D90 are reported in Table 13 below, wherein D50 represents the median particle size of the distribution, i.e. 50% of the particles are smaller and 50% are larger than that size. D10 indicates the particle size at which 10% of all particles are smaller than that size. Similarly, D90 indicates the particle size at which 90% of all particles are smaller than that size. The volume-weighted mean particle sizes D[4,3] are also reported.

[4] = Crystal density by helium gas pygnometry
Excerpt: However, once Form B has converted to Form A in the slurry, the particles start to settle to the bottom of the flask rapidly after stirring is turned off indicating increased particle size of the Form A crystals. […] High particle size and settling velocities are important process advantages for solid-liquid separation operations in commercial manufacturing. Large average particle size improve filtration and centrifugation steps by increased filtration speeds, higher throughputs, lower propensity to filter cake cracking and resulting filtrate by-passing, increased cake wash efficiency and increased product purity.

[5] = Temperature-dependent X-ray powder diffraction of polymorph Form A; settings: pure solid, heated from 25° C. to the melting point at 10° C. per minute
Experimental: To assess the stability of polymorph Form A of Compound 1 with respect to temperature, X-ray powder diffraction patterns were obtained while heating a sample of Form A from 25° C. to above its melting point. The measurement was conducted at the 5-IDD beam line at the Advanced Photon Source synchrotron located at the Argonne National Laboratory (Argonne, Ill., USA). A Differential-Scanning calorimeter (DSC, Model DSC600, Linkam Scientific Instruments, Tadworth, U.K.) was mounted in vertical orientation to allow insertion of the DSC into the X-ray beam. The DSC was positioned in the beam line to accept a 100-200 μm square beam under high vacuum. The standard quartz window was replaced with polyimide film (Kapton®, 8 μm thickness, DuPont, Wilmington, Del., USA). An internal thermocouple was installed for temperature recording. A circular charged couple device (CCD) detector (Model Mar165, 165 mm diameter, Marresearch GmbH, Norderstedt, Germany) was used to detect the X-rays scattered from the sample. The detector was equipped with an aluminum cone that covered the detector and extended 100 mm from the face of the detector. This cone was quipped with a beam stop support and 5×3 mm lead beam stop. The cone was continuously purged with helium to minimize air scattering. […]

[6] = Relative stability (non-competitive and competitive interconversion) of polymorph Forms A and B in various solvents at 22° C., solids analyzed by pXRD; settings: concluded from conversion of Form B to Form A in solvents at 22° C.
Experimental: as §1
A detailed description of the individual experiments for Examples 6a to 6j is given below.
(§2) In Example 6a, Form B of Compound 1 (0.3 g) was mixed with acetone (5 g) at 22° C. for 5 days. The slurry was then filtered through a syringe filter (0.45 μm glass fiber, type Whatman GE Autovial) and dried in a vacuum oven at 40° C. for 48 hours. Analysis by pXRD indicated Form A of compound 1.
as §2, with “6b,” for “6a,”, “B (0.3 g) and Form A (0.01 g)” for “B”, “were” for “(0.3 g) was”, “Compound” for “compound”
In Example 6c, Form B (0.3 g) of Compound 1 was mixed with tetrahydrofuran (5 g) at 22° C. for 5 days. […]

Filtration time relative to Polymorph Form A ([1]; about 90 grams)	Filtration time [1] [min]	Concentration of Compound 1 in filtrate ([2]; acetone) [wt %]	Concentration of Compound 1 in filtrate ([2]; ethyl acetate) [wt %]	Concentration of Compound 1 in filtrate ([2]; tetrahydrofuran) [wt %]	Concentration of Compound 1 in filtrate ([2]; toluene) [wt %]	Concentration of Compound 1 in filtrate ([2]; water) [wt %]	D10 [3] [μm]	D90 [3] [μm]	D50 [3] [μm]	D[4, 3] [3] [μm]	density [4] [g/mL]	Structure (SMILES)	Stability of the crystal form with respect to temperature (pXRD while heating) [5]	Relative thermodynamic stability [6]
more than 3 times	3.0	0.34	0.18	1.03	0.049	<0.01	0.6	19	3.2	6.8	1.582	Cc1cccn2c(=O)c(-c3cc(Cl)cc(Cl)c3)c([O-])[n+](Cc3cnc(Cl)s3)c12 [Form B, 1-[(2-chloro-5-thiazolyl)methyl]-3-(3,5-dichlorophenyl)-2-hydroxy-9-methyl-4-oxo-4H-pyrido[1,2-a]pyrimidinium inner salt]		
		0.34	0.09	1.01	0.023	<0.01						Cc1cccn2c(=O)c(-c3cc(Cl)cc(Cl)c3)c([O-])[n+](Cc3cnc(Cl)s3)c12 [B + seed A, 1-[(2-chloro-5-thiazolyl)methyl]-3-(3,5-dichlorophenyl)-2-hydroxy-9-methyl-4-oxo-4H-pyrido[1,2-a]pyrimidinium inner salt]		
	0.9						13	73	34	39	1.597	Cc1cccn2c(=O)c(-c3cc(Cl)cc(Cl)c3)c([O-])[n+](Cc3cnc(Cl)s3)c12 [Form A, 1-[(2-chloro-5-thiazolyl)methyl]-3-(3,5-dichlorophenyl)-2-hydroxy-9-methyl-4-oxo-4H-pyrido[1,2-a]pyrimidinium inner salt]	no crystal form conversion to another polymorph occurred; also recorded: physically and chemically stable in its pure solid form	more thermodynamically stable than Form B
